Assay results: patent US9770022B2, “N-cycloalkyl-N-[(bicyclylphenyl)methylene]-(thio)carboxamide derivatives” (BAYER CROPSCIENCE AG, priority 2013, dated 2017)
Read-outs that look alike come from different tables or passages of the source.

Key:
Sphaerotheca fuliginea = assay: In vivo preventive test on Sphaerotheca fuliginea (powdery mildew on cucurbits); settings: gherkin, evaluated 15 days after inoculation
Description: (§1) Solvent: 5% by volume of Dimethyl sulfoxide
(§2) • 10% by volume of Acetone Emulsifier: 1 μl of Tween® 80 per mg of active ingredient
(§3) The active ingredients are made soluble and homogenized in a mixture of Dimethyl sulfoxide/Acetone/Tween® 80 and then diluted in water to the desired concentration.
The young plants of gherkin are treated by spraying the active ingredient prepared as described above. Control plants are treated only with an aqueous solution of Acetone/Dimethyl sulfoxide/Tween® 80.
After 24 hours, the plants are contaminated by spraying the leaves with an aqueous suspension of Sphaerotheca fuliginea spores. The contaminated gherkin plants are incubated for 72 hours at 18° C. and at 100% relative humidity and then for 12 days at 20° C. and at 70-80% relative humidity.
The test is evaluated 15 days after the inoculation. 0% means an efficacy which corresponds to that of the control plants while an efficacy of 100% means that no disease is observed.

Puccinia recondita = assay: In vivo preventive test on Puccinia recondita (brown rust on wheat); settings: evaluated 11 days after inoculation
Description: as §1, §2, §3
(§4) The young plants of wheat are treated by spraying the active ingredient prepared as described above. Control plants are treated only with an aqueous solution of Acetone/Dimethyl sulfoxide/Tween® 80.
After 24 hours, the plants are contaminated by spraying the leaves with an aqueous suspension of Puccinia recondita spores. The contaminated wheat plants are incubated for 24 hours at 20° C. and at 100% relative humidity and then for 10 days at 20° C. and at 70-80% relative humidity.
(§5) The test is evaluated 11 days after the inoculation. 0% means an efficacy which corresponds to that of the control plants while an efficacy of 100% means that no disease is observed.

Septoria tritici = assay: In vivo preventive test on Septoria tritici (wheat); settings: 500 ppm of active ingredient, evaluated 24 days after inoculation
Description: as §1, §2, §3, §4
After 24 hours, the plants are contaminated by spraying the leaves with an aqueous suspension of Septoria tritici spores. The contaminated wheat plants are incubated for 72 hours at 18° C. and at 100% relative humidity and then for 21 days at 20° C. and at 90% relative humidity.
The test is evaluated 24 days after the inoculation. 0% means an efficacy which corresponds to that of the control plants while an efficacy of 100% means that no disease is observed.

Alternaria brassicae = assay: In vivo preventive test on Alternaria brassicae (leaf spot on radish); settings: 500 ppm of active ingredient, spray 24 hours before inoculation, evaluated 6 days after inoculation
Description: as §1, §2, §3
The young plants of radish are treated by spraying the active ingredient prepared as described above. Control plants are treated only with an aqueous solution of Acetone/Dimethyl sulfoxide/Tween® 80.
After 24 hours, the plants are contaminated by spraying the leaves with an aqueous suspension of Alternaria brassicae spores. The contaminated radish plants are incubated for 6 days at 20° C. and at 100% relative humidity.
The test is evaluated 6 days after the inoculation. 0% means an efficacy which corresponds to that of the control plants while an efficacy of 100% means that no disease is observed.

Uromyces appendiculatus = assay: In vivo preventive test on Uromyces appendiculatus (bean rust); settings: for pest or weed control at 500 ppm: Uromyces appendiculatus, 264 h
Description: as §1, §2, §3
The young plants of bean are treated by spraying the active ingredient prepared as described above. Control plants are treated only with an aqueous solution of Acetone/Dimethyl sulfoxide/Tween® 80.
After 24 hours, the plants are contaminated by spraying the leaves with an aqueous suspension of Uromyces appendiculatus spores. The contaminated bean plants are incubated for 24 hours at 20° C. and at 100% relative humidity and then for 10 days at 20° C. and at 70-80% relative humidity.
as §5

Pyrenophora teres = assay: In vivo preventive test on Pyrenophora teres (barley); settings: 500 ppm of active ingredient, evaluated 14 days after inoculation
Description: as §1, §2, §3
The young plants of barley are treated by spraying the active ingredient prepared as described above. Control plants are treated only with an aqueous solution of Acetone/Dimethyl sulfoxide/Tween® 80.
After 24 hours, the plants are contaminated by spraying the leaves with an aqueous suspension of Pyrenophora teres spores. The contaminated barley plants are incubated for 48 hours at 20° C. and at 100% relative humidity and then for 12 days at 20° C. and at 70-80% relative humidity.
The test is evaluated 14 days after the inoculation. 0% means an efficacy which corresponds to that of the control plants while an efficacy of 100% means that no disease is observed.

[1] = log P by HPLC on reversed-phase column (C 18), EEC Directive 79/831 Annex V.A8; type: physicochemical; settings: for chromatographic logP: reversed-phase HPLC column (C 18)
Description: In table 1, the log P values were determined in accordance with EEC Directive 79/831 Annex V.A8 by HPLC (High Performance Liquid Chromatography) on a reversed-phase column (C 18), using the method described below:
Temperature: 40° C.; Mobile phases: 0.1% aqueous formic acid and acetonitrile; linear gradient from 10% acetonitrile to 90% acetonitrile.
Calibration was carried out using unbranched alkan-2-ones (comprising 3 to 16 carbon atoms) with known log P values (determination of the log P values by the retention times using linear interpolation between two successive alkanones). lambda-max-values were determined using UV-spectra from 200 nm to 400 nm and the peak values of the chromatographic signals.

[2] = 500 ppm of active ingredient, evaluated 11 days after inoculation
[3] = 500 ppm, evaluated 11 days after inoculation, Table F2 comparison, read-out: Efficacy
[4] = Table 1, HPLC C 18, 40° C., 0.1% aqueous formic acid and acetonitrile, gradient 10% to 90% acetonitrile, two values = mixture of endo and exo isomers

Row | logP [1, 4] | Structure (SMILES) | Efficacy (Sphaerotheca fuliginea; 500 ppm of active ingredient) [%] | Efficacy (Puccinia recondita; 500 ppm of active ingredient) [%] | Efficacy (Septoria tritici) [%] | Efficacy (Alternaria brassicae) [%] | Efficacy (Pyrenophora teres) [%] | also measured
1 | – | Cn1nc(C(F)F)c(C(=O)N(Cc2ccccc2C2CC3CCC2C3)C2CC2)c1Cl (mixture of isomers) [I.02] | 98 | 88 | 86 | – | – | –
2 | – | Cn1nc(C(F)F)c(C(=O)N(Cc2ccccc2C2CC3CCC2C3)C2CC2)c1F (mixture of isomers) [I.03] | 100 | 98 | 100 | 96 | 100 | Efficacy (Uromyces appendiculatus; [2]): 100%
3 | – | O=C(c1ccsc1Br)N(Cc1ccccc1C1CC2CCC1C2)C1CC1 (mixture of isomers) [I.04] | – | – | 79 | – | – | –
4 | – | Cn1cc(C(=O)N(Cc2ccccc2C2CC3CCC2C3)C2CC2)c(C(F)F)n1 (mixture of isomers) [I.05] | 95 | 94 | 86 | 80 | 71 | Efficacy (Uromyces appendiculatus; [2]): 91%
5 | – | Cn1nc(C(F)F)c(C(=S)N(Cc2ccccc2C2CC3CCC2C3)C2CC2)c1F (mixture of isomers) [I.18] | 100 | 88 | 100 | 97 | 94 | Efficacy (Uromyces appendiculatus; [2]): 100%
6 | – | Cn1cc(C(=S)N(Cc2ccccc2C2CC3CCC2C3)C2CC2)c(C(F)F)n1 (mixture of isomers) [I.19] | 95 | 88 | 98 | 75 | – | –
7 | – | Cc1nn(C)c(F)c1C(=O)N(Cc1ccccc1C1CCCC1)C1CC1 [CMP4, N-(2-cyclopentylbenzyl)-N-cyclopropyl-5-fluoro-1,3-dimethyl-1H-pyrazole-4-carboxamide, reference compound] | – | – | – | – | – | pest or weed control at 500 ppm (Uromyces appendiculatus; [3]): < 40%
8 | – | Cn1nc(C(F)F)c(C(=O)N(Cc2ccccc2C2CCCCC2)C2CC2)c1F [CMP5, N-(2-cyclohexylbenzyl)-N-cyclopropyl-3-(difluoromethyl)-5-fluoro-1-methyl-1H-pyrazole-4-carboxamide, reference compound] | – | – | – | – | – | pest or weed control at 500 ppm (Uromyces appendiculatus; [3]): < 40%
9 | – | Cn1cc(C(=O)N(Cc2ccccc2C2CCCCC2)C2CC2)c(C(F)F)n1 [CMP6, N-(2-cyclohexylbenzyl)-N-cyclopropyl-3-(difluoromethyl)-1-methyl-1H-pyrazole-4-carboxamide, reference compound] | – | – | – | – | – | pest or weed control at 500 ppm (Uromyces appendiculatus; [3]): < 40%
10 | – | CC(c1ccccc1C1CCCC1)N(C(=O)c1c(C(F)F)nn(C)c1Cl)C1CC1 (stereo not shown) [CMP7, 5-chloro-N-[1-(2-cyclopentylphenyl)ethyl]-N-cyclopropyl-3-(difluoromethyl)-1-methyl-1H-pyrazole-4-carboxamide, reference compound] | – | – | – | – | – | pest or weed control at 500 ppm (Uromyces appendiculatus; [3]): < 40%
11 | – | CC(c1ccccc1C1=CCCCC1)N(C(=O)c1c(C(F)F)nn(C)c1F)C1CC1 (stereo not shown) [CMP8, N-{1-[2-(cyclohex-1-en-1-yl)phenyl]ethyl}-N-cyclopropyl-3-(difluoromethyl)-5-fluoro-1-methyl-1H-pyrazole-4-carboxamide, reference compound] | – | – | – | – | – | pest or weed control at 500 ppm (Uromyces appendiculatus; 500 ppm, evaluated 11 days after inoculation, Table F3 comparison, read-out: Efficacy): < 55%
12 | 5.45 | Cn1nc(C(F)F)c(C(=S)N(Cc2ccccc2C2CC3CCC2C3)C2CC2)c1Cl (stereo not shown) [I.06] | 98 | 88 | 88 | – | 75 | Efficacy (Uromyces appendiculatus; [2]): 99%
13 | – | Cn1nc(C(F)F)c(C(=O)N(Cc2ccccc2C23CCCC2C3(Cl)Cl)C2CC2)c1F (stereo not shown) [I.07, N-cyclopropyl-N-[2-(6,6-dichlorobicyclo[3.1.0]hex-1-yl)benzyl]-3-(difluoromethyl)-5-fluoro-1-methyl-1H-pyrazole-4-carboxamide] | 100 | 94 | 94 | – | 81 | pest or weed control at 500 ppm (Uromyces appendiculatus; 500 ppm of active ingredient, evaluated 11 days after inoculation, read-out: Efficacy): 100%; chromatographic logP [1, 4]: 4.46
14 | 4.85 | Cn1nc(C(F)F)c(C(=O)N(Cc2cc(Cl)ccc2C23CCCC2C3(Cl)Cl)C2CC2)c1F (stereo not shown) [I.08] | 100 | 88 | 94 | – | 81 | Efficacy (Uromyces appendiculatus; [2]): 99%
15 | 4.90 | Cn1nc(C(F)F)c(C(=O)N(Cc2cc(C34CCCC3C4(Cl)Cl)ccc2Cl)C2CC2)c1F (stereo not shown) [I.09] | 100 | – | 100 | 75 | 88 | Efficacy (Uromyces appendiculatus; [2]): 84%
16 | 4.82 | Cn1nc(C(F)F)c(C(=O)N(Cc2ccccc2C23CCCCC2C3(Cl)Cl)C2CC2)c1F (stereo not shown) [I.10] | 100 | 88 | 88 | – | – | –
17 | 5.22 | Cn1nc(C(F)F)c(C(=O)N(Cc2cc(Cl)ccc2C23CCCCC2C3(Cl)Cl)C2CC2)c1F (stereo not shown) [I.11] | 100 | 75 | 75 | 75 | – | –
18 | 5.25 | Cn1nc(C(F)F)c(C(=O)N(Cc2cc(C34CCCCC3C4(Cl)Cl)ccc2Cl)C2CC2)c1F (stereo not shown) [I.12] | 100 | – | 94 | 97 | 75 | –
19 | 5.54 | Cn1nc(C(F)F)c(C(=O)N(Cc2cc(Cl)ccc2C23CCCCCC2C3(Cl)Cl)C2CC2)c1F (stereo not shown) [I.14] | 100 | 75 | 94 | 83 | – | –
20 | 5.72 | Cn1cc(C(=O)N(Cc2ccccc2C2=CC3CCC2(C)C3(C)C)C2CC2)c(C(F)(F)F)c1 (stereo not shown) [I.22] | – | – | – | – | – | –
21 | 7.09 | Cn1nc(C(F)F)c(C(=O)N(Cc2cc(CC3C4CCC(C4)C3(C)C)ccc2C(C)(C)C)C2CC2)c1F (stereo not shown) [I.23] | – | – | – | – | – | Efficacy (Sphaerotheca fuliginea; at 100 ppm (note 1)): 100^(1) %; Efficacy (Puccinia recondita; at 100 ppm (note 1)): 79^(1) %
22 | – | c1ccc(C2CC3CCC2C3)c(CNC2CC2)c1 (stereo not shown) [IIa.1, N-[2-(bicyclo[2.2.1]hept-2-yl)benzyl]cyclopropanamine] | – | – | – | – | – | chromatographic logP ([1]; Table 2 (amines IIa), same HPLC method, broad signal): 2.01

Row | Structure (SMILES) | logP [1, 4] | Efficacy (Sphaerotheca fuliginea; 500 ppm of active ingredient) [%] | Efficacy (Puccinia recondita; 500 ppm of active ingredient) [%] | Efficacy (Septoria tritici) [%] | Efficacy (Alternaria brassicae) [%] | Efficacy (Pyrenophora teres) [%] | also measured
23 | Cc1nn(C)c(F)c1C(=O)N(Cc1ccccc1C1CC2CCC1C2)C1CC1 (stereo not shown) [I.01, N-[2-(bicyclo[2.2.1]hept-2-yl)benzyl]-N-cyclopropyl-5-fluoro-1,3-dimethyl-1H-pyrazole-4-carboxamide] | 4.24 | 100 | 100 | 100 | – | 100 | Efficacy (Sphaerotheca fuliginea; 100 ppm, Table E2 comparison): total protection; pest or weed control at 500 ppm (Uromyces appendiculatus; read-out: Efficacy, 500 ppm of active ingredient, evaluated 11 days after inoculation): 100%; pest or weed control at 500 ppm (Uromyces appendiculatus; read-out: Efficacy, 500 ppm, evaluated 11 days after inoculation, Table F2 comparison): ≥ 80%; chromatographic logP [1, 4]: 4.16
